Laboratory results: patent publication US5043166A, “Liposome/anthraquinone drug composition and method” (priority 1989, dated 1991)
Like-named read-outs stand apart in the source and are kept apart here. Blank lines part the entries; values can stand above or below the compound they belong to.

How the values were obtained:
[1] = peroxidation in liposomes with chelators; assay type: physicochemical
[2] = Ni^2+; cited from earlier work
[3] = chemical modification of DXR in stored liposomes; assay type: physicochemical; details: stored anoxic 1 day at 4° C.
Protocol: The liposomes were stored under anoxic conditions for 1 day at 4° C., as above. Chemical modification of the drug was detected both by fluorescence emission spectroscopy and by assaying the change in drug toward a more lipophilic species, as described in Section A above.

[4] = Cu^2+; cited from earlier work
[5] = Fe^3+; cited from earlier work
[6] = Co^2+; cited from earlier work
[7] = Mg^2+; cited from earlier work
[8] = in vivo; cited from earlier work
[9] = Fe^2+; cited from earlier work
[10] = Ca^2+; cited from earlier work
[11] = Zn^2+; cited from earlier work
[12] = prior to or concurrent with DXR administration; cited from earlier work

SMILES: O=C(O)CN(CCN(CC(=O)O)CC(=O)O)CCN(CC(=O)O)CC(=O)O [DTPA]
effect on anthraquinone modification in vitro ([1]; in the presence of lipids and ferric iron): protective effect

SMILES: O=C(O)CN(CCN(CC(=O)O)CC(=O)O)CC(=O)O [EDTA, ethylenediaminetetraacetic acid]
effect on peroxidation damage in liposomes [1]: peroxidation-stimulating effect

protection against drug modification [3]: moderate protections
SMILES: CC(=O)N(O)CCCCCNC(=O)CCC(=O)N(O)CCCCCNC(=O)CCC(=O)N(O)CCCCCN [ferrioxamine, ferrioxamine B]
Binding Affinity [2]: 10^10 | Binding Affinity [4]: 10^14 | Binding Affinity [5]: 10^31 | Binding Affinity [6]: 10^11 | Binding Affinity [7]: 10^4 | safety for parenteral use in humans [8]: proven safe for parenteral use in humans | Binding Affinity [9]: 10^10 | Binding Affinity [10]: 10^2 | Binding Affinity [11]: 10^11

SMILES: Cc1c(C)c2c(c(C)c1O)CCC(C)(CCCC(C)CCCC(C)CCCC(C)C)O2 (stereo not drawn) [α-T, alpha-tocopherol]
reduction of cardiotoxicity [12]: effective in reducing cardiotoxicity | protection against drug modification [3]: moderate protections
